Laboratory results: a melting point compilation (Tetko et al.; mined from patent text by program, amines drawn as free bases though some values may be those of a salt)

melting point [°C] | SMILES
70 to 72 | COC(=O)C(C)Oc1cccc2cccnc12 (configuration not stated)
121 to 124 | CCCN(O)CCc1ccc2c(c1)C(=O)c1ccccc1CO2
75 to 78 | CCNC(=O)c1cccs1
90 to 91 | Cc1cc(C)cc(C(=O)Cc2ccncc2)c1
133 to 135 | O=C(CCCCCCCCC(=O)OC1CCN(O)CC1)OC1CCN(O)CC1
187 to 190 | Nc1nc(-c2ccccc2)c2ncn(C3OC(CO)C(O)C3O)c2n1 (configuration not stated)
111 to 115 | CCOC(=O)C1=Cc2cc(N)ccc2OC1C(F)(F)F (configuration not stated)
193 to 195 | O=C1C(c2cc3c(cc2O)OCCCO3)c2ccccc2N1C(c1ccccc1)c1ccccc1 (configuration not stated)
199 to 201 | COCc1cnc2c(NC(=O)c3c(Cl)cccc3Cl)cccc2c1N1CCN(C)C1=O
150 to 156 | CCCC(CCC)C(=O)N[C@H](C(=O)N[C@H]1CCO[C@@H]1OC)C(C)C
88 to 92 | CC(C)(C)OC(=O)N1CCC(c2nc3cc(-c4ccc(S(C)(=O)=O)cc4F)ccc3[nH]2)CC1
144 | Cc1cc(C)cc(NCc2ccc3nc(NC4CCN(CCO)CC4)n(Cc4nc(C)ccc4O)c3c2)c1
101 to 103 | COc1ncccc1-c1cccn2nc(Nc3ccc(C4CCN(C(=O)OC(C)(C)C)CC4)cc3)nc12
> 220 | O=[N+]([O-])c1cccc(-c2ccnc3[nH]c4ccccc4c23)c1
216 to 218 | CN1C(=O)C(c2ccc(OC(F)F)cc2)(C23CC4CC(CC(C4)C2)C3)N=C1N (configuration not stated)
63 to 65 | CCCc1c(OCCCSc2cccc(CC(=O)O)c2F)ccc(C(C)=O)c1O
160 | O=C1c2ccccc2C(=O)N1C(=O)c1cc(Oc2ccc(C(F)(F)F)cc2Cl)ccc1[N+](=O)[O-]
88 to 90 | CCCCC1(Cc2c(F)cccc2Cl)NC=C(C=O)N1 (configuration not stated)
201 to 202 | NC(=Nc1ccc(N2CCN(C(=O)NCCCCC3CCSS3)CC2)cc1)c1cccs1 (configuration not stated)
152 to 155 | CCCn1c(=O)c2c(nc(/C=C/c3ccc4c(c3)OCO4)n2C)n(CCC)c1=O
220 to 221 | Cc1sc(-c2ccc(C#N)cc2)nc1O
186 to 188 | OC1CCCCC1n1c(Br)nc2cc(Cl)c(Cl)cc21 (configuration not stated)
129 to 130 | Cc1oc(-c2ccccc2)nc1COc1cccc(CSc2cccc(C(=O)O)c2)c1
98.5 to 100 | COC[C@H](C1CC1)n1cc(Br)nc(Br)c1=O
248 to 253 | O=c1nc(-c2ccc(F)cc2)c2c([nH]1)CCCC2

melting point [°C] | SMILES
104 to 106 | CC(C)(C)c1ccccc1N1CCN(C(=O)c2ccccc2)CC1
62 to 67 | CC(C)C[C@@H](C(=O)N1CCN(C(c2ccc(F)cc2)c2ccc(F)cc2)CC1)N(Cc1ccc(OC(C)(C)C)cc1)Cc1ccc(OC(C)(C)C)cc1
245 to 247 | Cc1ccc(Oc2nc3ccccc3o2)c(=S)n1C
226 to 230 | Cc1nc2c(N)nc3c(c2n1CC(C)C)CCNC3
118 to 120 | N#CCc1nc(-c2ccc(Cl)cc2)sc1-c1ccccc1
246 to 248 | O=C1NC(=O)C(=Cc2ccccc2)S1
59 to 61 | COC(=O)CCc1nc(CCc2ccc(C(=O)OC)cc2)ccc1OCCCC/C=C/c1ccc(OC)cc1
268 to 269 | CCN(CC)C(=O)C(=NO)c1c[nH]c2c1ccc1c3ccccc3[nH]c12
163 to 164 | CC(C)(C)n1cc(-c2ccc(N(C=O)c3ccccc3)cc2)c2cncnc21
194 to 196 | Clc1ccc2c(c1)Nc1cc(Cl)ccc1OCO2
121 to 123 | CCOc1c2ccccc2nc2c1c(C)nn2-c1ccccn1
89 to 92 | COc1cc2c(cc1OC)C(C)(CC(=O)O)OCC2 (configuration not stated)
98 to 99 | O=[N+]([O-])c1cccc(COc2cccc3cccnc23)c1
73 to 76 | COc1ccc(Nc2nc(NCCN(C)C)nc(NC3CCCCCC3)n2)cc1F
98 to 102 | CCOC(=O)Cc1cnc(C(C)(C)C)nc1O
193 to 194 | O=C1C=CC(=O)N1CCN1C(=O)C=CC1=O
136 to 138 | Cc1cnc2c([N+](=O)[O-])ccc(Cl)c2c1Cl
99 to 100 | CCCc1cc(Cl)c(O)c2c(C)c(Cc3ccc(OC)cc3)oc12
122 to 124 | CCCCN(CCCC)c1ccc(N=O)cc1
145 | CS(=O)(=O)OCCn1c(=NC(=O)C(F)(F)F)sc2cc(OC(F)(F)F)ccc21
63 to 65 | C#CCCOc1cc(C=O)ccc1OC
194 to 197 | Oc1ccc2c(c1)[C@H](O)[C@H](Oc1cccnc1)CO2 (relative stereo)
185 to 193 | CCOC(=O)c1[nH]c2ccc(C(O)(C(F)(F)F)C(F)(F)F)cc2c1-c1ccccc1
154 to 156 | CCOC(=O)C(Cc1c(Cl)cc(OC)cc1Cl)(NC(C)=O)C(=O)OCC
114 | Cc1ccc(O)c(Cn2c(NCCCN3CCOCC3)nc3ccc(CNc4c(C)cc(CCC#N)cc4C)cc32)n1

melting point [°C] | SMILES
116 to 117 | CC(C(=O)n1c(=O)oc2ccccc21)C(O)CCCl (configuration not stated)
> 300 | O=C(Nc1nnn[nH]1)c1csc(-c2ncccc2O)n1
145 to 147 | COc1cc(C2(CNC(=O)Nc3c(C(C)C)cccc3C(C)C)CCC2)cc(OC)c1OC
103 to 105 | CCc1ccc(C(=O)Nc2ccccc2O)cc1
132 to 135 | O=C1NC(=S)SC1=Cc1c(F)c(F)c(F)c(F)c1F
135 to 136 | COC(=O)c1cccc(-c2ccc(O)cc2)c1
229 | CS(=O)(=O)c1cc(CCC(=O)O)nc(-c2nc(=O)c3ccc(Cl)cc3s2)c1
134 to 138 | COc1ccc(CCNc2nc(N)c(N)c(N)n2)cc1
182 to 184 | Cn1c(-c2ccc(O)c(F)c2)cc2ncccc2c1=O
168 to 169 | O=C1Nc2cc3c(cc2SC1CCCBr)OCO3 (configuration not stated)
178 | CC(=O)OC1CSC(Oc2cncc(-c3ccc(F)c(C#N)c3)c2)C(OC(C)=O)C1OC(C)=O (configuration not stated)
169 to 171 | CCOC(=O)C1=C(COCc2cccnc2)NC(COCc2cccnc2)=C(C(=O)OCC)C1c1cccc([N+](=O)[O-])c1
115 to 116 | COC(=O)Cc1ccccc1Oc1cccc(O)c1
132 to 134 | NC(=O)N(O)Cc1sccc1Oc1ccccc1
186 to 188 | C#CC1N(C(=O)Oc2ccccc2)c2ccc(OC)cc2C23OC12CCCC3=O (configuration not stated)
185 to 186 | COC1CN(C(=O)Nc2ccc(C(F)(F)F)cc2)N=C1c1ccc(Cl)cc1 (configuration not stated)
198 to 200 | O=S(=O)(Nc1ccc2c(OCc3coc(-c4ccc(Cl)cc4)n3)cccc2c1)C(F)(F)F
86 to 88 | Cc1ccc(Oc2c(C)cc(N)c(C)c2Cl)c(C)c1
126 to 127 | CCOC(=O)C=Cc1ccc(NC(C)=O)cc1
162 to 164 | Cn1cc2c3c(ccc2n1)CCC3=O
157 to 160 | CCOC(=O)C(=O)Nc1c([N+](=O)[O-])sc2ccc(Br)cc12
198 to 202 | CCN1CCN(CC(=O)OCCOC)C(=O)c2ccc(Nc3ncc(Cl)c(Nc4ccccc4C(=O)NC)n3)cc21
55 | CC(=O)N(C(C)=O)c1cscn1
165 to 168 | CC(C)(C)c1cc2c(c(C(C)(C)C)c1)OC(=O)C2=O
244 to 245 | COc1ccccc1-n1c(=O)[nH]c2c(C(N)=O)nc(-c3ccc4[nH]c(SC)nc4c3)nc21

melting point [°C] | SMILES
202 to 203 | Nc1ccc2nc(N)sc2c1
167 to 168 | COC(=O)C1=C(CF)NC(C)=C(C(=O)OC2CCCC2)C1c1cccc([N+](=O)[O-])c1C (configuration not stated)
138 to 140 | CSC1=Nc2cccnc2Nc2cscc21
202 to 204 | COc1cc([N+](=O)[O-])c2c(c1OC)C(=O)CC2
157 | CC(C)(C)CNN(CC(C)(C)C)S(=O)(=O)c1nc(Cl)cs1
148 to 150 | Cc1c(C)c2c(c(C)c1Nc1ccccc1)CC(C)(C)O2
60.5 to 61 | CCCCOC(=O)Cc1ccc(CNS(=O)(=O)c2ccccc2)cc1
199 to 200 | COc1ccc2c(c1)C(=O)CC1C2C(OC(C)=O)CC2(C)C(OC(C)=O)CCC12 (configuration not stated)
155 to 157 | CC(C(=O)O)c1ccc2c(c1)oc1ccc(Cl)cc12 (single isomer, unassigned; (+))
85 to 91 | O=C1OC(=O)c2ncc([N+](=O)[O-])cc21
96 to 97 | CCCCOc1cccc2oc(-c3ccccc3)cc(=O)c12
137 to 141 | O=C1c2ccccc2SC(O)(c2ccccc2)C2CCCN12 (configuration not stated)
193 to 195 | Fc1cccc2cc3cccc(F)c3nc12
104 | CC(N)Cn1cc(-c2ccccc2)c2ccccc2c1=O (configuration not stated)
145 to 147 | CCCCCS(=O)(=O)NC(=O)CCc1cc(-c2ccccc2)nn1Cc1ccc(Cl)cc1Cl
100 | O=[N+]([O-])c1cc(S(=O)(=O)N(CCO)CCO)sc1Cl
153 to 155 | COc1cccc(-c2cn(C)cc(-c3cccc(C(F)(F)F)c3)c2=O)c1OC
110 to 111 | COC(=O)c1ccc(CNC(C)=O)cc1
82 to 88 | CCOc1c(Br)ccc(C(=O)OC)c1N(C)S(C)(=O)=O
192 to 195 | Cc1nnc2cnc(-c3ccccc3)cn12
91 to 92 | O=C(CCc1ccccc1)N[C@H](Cc1ccc(C(F)(F)F)o1)[C@@H](O)c1ccc(F)cc1 (racemic)
258 to 260 | O=C(Nc1cc(Cl)cc(Cl)c1)c1cc(F)ccc1O
215 to 216 | CC12CC[C@](C(=O)N3CCC4(C=Cc5ccccc54)CC3)(OC1=O)C2(C)C
204 to 205 | CCNc1nc(C)c(-c2ccnc(Nc3cccc(S(=O)(=O)NCc4ccccc4)c3)n2)s1

SMILES | melting point [°C]
CCCN1CCC23c4cccc(OC)c4OC2C2CCC3(C1)C(COC)C2 (configuration not stated) | 130 to 131
C=CCCN1C(=O)C2C3CCC(O3)C2C1=O (configuration not stated) | 64 to 65
CCN(CC)C(=O)Nc1ccc2c(c1)C(c1ccccc1F)=NCC(=O)N2C | 138 to 139
